Test results from paper PMC6976569, “Structural basis of subtype-selective competitive antagonism for GluN2C/2D-containing NMDA receptors” (Nature Communications, 2020).
Where “and” joins values, the source holds several entries; their conditions need not be identical. Identical values can stand only once. Like-named read-outs stand apart in the source and are kept apart here.

Columns and labels:
GluA1 = GluA1 (Homo sapiens, UniProt P42261); experiment: Glutamate-stimulated Ca2+-influx fluorescence assay in HEK293 cells, GluA1; type: cell-based; details: for IC50: HEK293 cells, glutamate-stimulated Ca2+-influx
GluA1, sequence (P42261 19-906): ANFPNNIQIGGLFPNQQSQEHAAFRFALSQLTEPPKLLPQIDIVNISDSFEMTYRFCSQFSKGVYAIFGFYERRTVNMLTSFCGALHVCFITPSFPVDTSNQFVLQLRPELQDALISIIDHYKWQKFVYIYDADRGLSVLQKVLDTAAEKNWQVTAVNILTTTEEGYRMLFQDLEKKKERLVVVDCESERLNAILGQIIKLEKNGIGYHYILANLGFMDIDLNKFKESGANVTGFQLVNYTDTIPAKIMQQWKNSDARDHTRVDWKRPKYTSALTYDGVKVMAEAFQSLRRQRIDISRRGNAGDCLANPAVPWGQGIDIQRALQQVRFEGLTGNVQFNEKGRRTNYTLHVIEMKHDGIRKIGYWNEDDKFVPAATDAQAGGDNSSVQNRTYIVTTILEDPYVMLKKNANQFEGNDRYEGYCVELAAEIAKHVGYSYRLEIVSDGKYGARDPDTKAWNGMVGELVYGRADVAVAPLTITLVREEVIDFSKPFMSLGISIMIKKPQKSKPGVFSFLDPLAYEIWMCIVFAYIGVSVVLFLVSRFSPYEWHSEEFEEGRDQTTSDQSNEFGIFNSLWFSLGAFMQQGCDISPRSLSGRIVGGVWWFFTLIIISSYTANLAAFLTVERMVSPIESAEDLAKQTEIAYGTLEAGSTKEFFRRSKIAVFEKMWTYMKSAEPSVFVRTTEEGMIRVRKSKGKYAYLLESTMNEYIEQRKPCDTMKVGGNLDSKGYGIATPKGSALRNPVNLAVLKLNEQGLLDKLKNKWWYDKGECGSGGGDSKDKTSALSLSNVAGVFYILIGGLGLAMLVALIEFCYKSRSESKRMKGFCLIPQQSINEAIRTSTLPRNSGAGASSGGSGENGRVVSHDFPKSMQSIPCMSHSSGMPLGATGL
Procedure: (§1) HEK293 cell lines stably expressing homomeric glutamate receptors (GluA1, GluK1 and GluK2) were obtained from Eli Lilly and grown in DMEM (ThermoFisher) supplemented with 10% v/v fetal bovine serum (Sigma), 2 mM Glutamax™ (Gibco), 100 U/mL penicillin, 100 µg streptomycin and 250 ng amphotericin B (Sigma) in 5% CO2 at 37 °C. Cells were passaged using TrypLE (Gibco) as required before confluency and periodically treated with selection antibiotics (GluK1, GluK2 hygromycin B, 200 µg/mL; GluA1 geneticin™, 200 µg/mL).
(§2) Calcium influx fluorescence assay
(§3) 100k cells/well were seeded into a 96-well plate precoated with poly-L-lysine and incubated for 12-16 hours until fully confluent. The cell monolayer was washed twice with 100 µL Hanks Balanced Salt Solution supplemented with 5 mM CaCl2 and 20 mM HEPES (sHBSS), then incubated for 2-4 hours with 100 µL working solution of Ca6 dye (Molecular Devices) supplemented with a desensitization blocker (GluK1, GluK2 0.25 mg/mL concanavalin A, Sigma; GluA1 100 µM cyclothiazide, Sigma). The time resolved fluorescence was recorded in a Flexstation 3 instrument (Molecular Devices). For each individual reading, the initial fluorescence of the well was measured for 20 seconds, after which the desired concentration of […]
(§4) response is measured as the peak change in fluorescence upon addition of agonist. The viability of the cells was confirmed by determination of the concentration-response curve to the L-glutamate agonist and a standard antagonist for each plate. Readings of antagonists used the […]
(§5) Fluorescence traces were performed in […]
(§6) triplicate on each plate and Ki values were determined on a plate-by-plate basis. Separate experiments (n) were performed on different passages of cells. […]

GluK2 = GluK2 (Homo sapiens, UniProt Q13002); experiment: Glutamate-stimulated Ca2+-influx fluorescence assay in HEK293 cells, GluK2; type: cell-based; details: for IC50: HEK293 cells, glutamate-stimulated Ca2+-influx
GluK2, sequence (Q13002 32-908): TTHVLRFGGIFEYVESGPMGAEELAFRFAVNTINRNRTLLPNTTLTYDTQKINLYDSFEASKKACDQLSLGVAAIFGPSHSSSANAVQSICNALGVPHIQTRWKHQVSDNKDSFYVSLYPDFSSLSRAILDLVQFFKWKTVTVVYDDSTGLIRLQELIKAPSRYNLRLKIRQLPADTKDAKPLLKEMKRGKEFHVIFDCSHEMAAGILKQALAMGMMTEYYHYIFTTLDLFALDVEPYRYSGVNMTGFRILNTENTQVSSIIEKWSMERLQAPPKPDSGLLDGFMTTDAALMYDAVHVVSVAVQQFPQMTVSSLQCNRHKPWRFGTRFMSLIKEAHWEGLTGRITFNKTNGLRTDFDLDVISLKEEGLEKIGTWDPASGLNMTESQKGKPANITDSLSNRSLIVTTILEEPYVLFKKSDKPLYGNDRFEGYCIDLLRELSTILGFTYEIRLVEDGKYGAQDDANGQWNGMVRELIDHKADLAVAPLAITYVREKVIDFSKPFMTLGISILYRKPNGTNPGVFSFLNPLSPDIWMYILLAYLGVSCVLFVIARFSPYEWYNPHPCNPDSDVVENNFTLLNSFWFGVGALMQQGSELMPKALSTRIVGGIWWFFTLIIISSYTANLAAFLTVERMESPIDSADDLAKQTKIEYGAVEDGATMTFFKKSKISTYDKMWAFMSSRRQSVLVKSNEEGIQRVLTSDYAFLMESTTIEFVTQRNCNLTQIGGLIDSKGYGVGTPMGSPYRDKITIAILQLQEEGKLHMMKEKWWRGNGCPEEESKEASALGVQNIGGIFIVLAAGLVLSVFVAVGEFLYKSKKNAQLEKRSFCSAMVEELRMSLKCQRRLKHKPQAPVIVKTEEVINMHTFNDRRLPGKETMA
Procedure: as §1, §2, §3, §4, §5, §6

GluN1-4a/GluN2D NMDARs = biological target: T1, GluN1-4a/GluN2D NMDARs (Rattus norvegicus, UniProt P35439+Q62645); experiment: TEVC electrophysiology on Xenopus laevis oocytes expressing GluN1-4a/GluN2D; type: cell-based
T1 construct: expressed in transfected cells; host or cells: Xenopus laevis oocytes injected with cRNA
T1 sequence (Q62645 28-1323, other chains not shown): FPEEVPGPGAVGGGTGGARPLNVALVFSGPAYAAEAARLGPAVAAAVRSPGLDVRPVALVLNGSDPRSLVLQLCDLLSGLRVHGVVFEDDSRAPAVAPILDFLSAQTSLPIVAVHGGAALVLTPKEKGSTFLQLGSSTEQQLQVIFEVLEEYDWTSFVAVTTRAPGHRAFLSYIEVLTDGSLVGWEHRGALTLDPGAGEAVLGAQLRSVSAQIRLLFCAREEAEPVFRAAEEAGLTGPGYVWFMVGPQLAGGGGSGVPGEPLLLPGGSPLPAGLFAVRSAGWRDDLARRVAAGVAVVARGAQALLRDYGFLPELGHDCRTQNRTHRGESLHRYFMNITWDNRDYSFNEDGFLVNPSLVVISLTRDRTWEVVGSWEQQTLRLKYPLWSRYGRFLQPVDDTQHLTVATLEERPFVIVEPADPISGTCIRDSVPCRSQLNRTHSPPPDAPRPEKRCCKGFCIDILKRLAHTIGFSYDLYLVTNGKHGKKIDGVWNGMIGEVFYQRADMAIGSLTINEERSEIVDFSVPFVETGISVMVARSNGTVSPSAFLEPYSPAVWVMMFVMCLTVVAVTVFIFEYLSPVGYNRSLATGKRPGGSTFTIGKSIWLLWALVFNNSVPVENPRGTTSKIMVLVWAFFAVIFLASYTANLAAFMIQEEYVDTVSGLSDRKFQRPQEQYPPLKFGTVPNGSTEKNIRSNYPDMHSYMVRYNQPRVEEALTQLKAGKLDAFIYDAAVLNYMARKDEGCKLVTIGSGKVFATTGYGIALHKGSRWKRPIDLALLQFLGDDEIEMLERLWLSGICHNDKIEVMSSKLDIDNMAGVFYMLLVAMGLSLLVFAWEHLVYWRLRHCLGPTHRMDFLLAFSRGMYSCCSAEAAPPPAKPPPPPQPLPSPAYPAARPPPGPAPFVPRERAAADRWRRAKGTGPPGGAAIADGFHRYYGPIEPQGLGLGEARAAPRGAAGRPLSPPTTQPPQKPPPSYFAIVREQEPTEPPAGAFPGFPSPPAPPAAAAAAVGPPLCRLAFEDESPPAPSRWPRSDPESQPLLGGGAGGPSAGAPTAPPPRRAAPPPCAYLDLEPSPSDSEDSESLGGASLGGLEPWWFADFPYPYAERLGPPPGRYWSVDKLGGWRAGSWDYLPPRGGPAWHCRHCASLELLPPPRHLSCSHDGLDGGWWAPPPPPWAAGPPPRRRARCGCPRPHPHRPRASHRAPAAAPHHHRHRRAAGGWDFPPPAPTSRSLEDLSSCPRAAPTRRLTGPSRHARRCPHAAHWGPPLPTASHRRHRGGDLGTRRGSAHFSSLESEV
Source text: (§7) The chemical definition of UBP791 used in this study is a cis-racemic mixture of (2S,3R)- and (2R,3S)-isomers.
(§8) Plasmids (pSP or pCI_NEO) harboring rat GluN1 or GluN2 full-length subunits were linearized by restriction digestion and transcribed according to the manufacturer’s instructions (mMESSAGE mMachine SP6 or T7 kit, ThermoFisher Scientific). Recombinant rat GluN1-4a and GluN2 were expressed by co-injecting cRNA at a 1:2 (w/w) ratio into defolliculated X. laevis oocytes (amounts varied from 0.05–25 ng per oocyte). Two-electrode voltage-clamp recordings were performed 1–3 days after injection using agarose-tipped microelectrodes (0.4–1.2 MΩ) filled with 3 M KCl at a holding potential of −60 mV. The bath solution contained 5 mM HEPES, 100 mM NaCl, 0.3 mM BaCl2, 10 mM Tricine, at pH 7.4 (adjusted with KOH). […] For the statistical evaluation, we implemented pairwise F-tests to test variances, and then performed the Student t test with equal or unequal variances as determined previously, and accounted for multiple testing with the Bonferroni correction.

GluN1-4a/GluN2A NMDARs [1] = biological target: T2, GluN1-4a/GluN2A NMDARs (Rattus norvegicus, UniProt Q00959); experiment: TEVC electrophysiology on Xenopus laevis oocytes expressing GluN1-4a/GluN2A; type: cell-based; details: Ki GluN2A relative to Ki GluN2D (WT)
T2 construct: expressed in transfected cells; host or cells: Xenopus laevis oocytes injected with cRNA
Source text: as §7, §8

GluN1-4a/GluN2A NMDARs [2] = biological target: T3, GluN1-4a/GluN2A NMDARs (Rattus norvegicus, UniProt P35439+Q00959); experiment: as above; type: cell-based; details: Cheng–Prusoff from IC50 and L-glutamate EC50; 100 μM glycine, 1 or 3 μM L-glutamate
T3 construct: expressed in transfected cells; host or cells: Xenopus laevis oocytes injected with cRNA
T3 sequence (Q00959 23-1464, other chains not shown): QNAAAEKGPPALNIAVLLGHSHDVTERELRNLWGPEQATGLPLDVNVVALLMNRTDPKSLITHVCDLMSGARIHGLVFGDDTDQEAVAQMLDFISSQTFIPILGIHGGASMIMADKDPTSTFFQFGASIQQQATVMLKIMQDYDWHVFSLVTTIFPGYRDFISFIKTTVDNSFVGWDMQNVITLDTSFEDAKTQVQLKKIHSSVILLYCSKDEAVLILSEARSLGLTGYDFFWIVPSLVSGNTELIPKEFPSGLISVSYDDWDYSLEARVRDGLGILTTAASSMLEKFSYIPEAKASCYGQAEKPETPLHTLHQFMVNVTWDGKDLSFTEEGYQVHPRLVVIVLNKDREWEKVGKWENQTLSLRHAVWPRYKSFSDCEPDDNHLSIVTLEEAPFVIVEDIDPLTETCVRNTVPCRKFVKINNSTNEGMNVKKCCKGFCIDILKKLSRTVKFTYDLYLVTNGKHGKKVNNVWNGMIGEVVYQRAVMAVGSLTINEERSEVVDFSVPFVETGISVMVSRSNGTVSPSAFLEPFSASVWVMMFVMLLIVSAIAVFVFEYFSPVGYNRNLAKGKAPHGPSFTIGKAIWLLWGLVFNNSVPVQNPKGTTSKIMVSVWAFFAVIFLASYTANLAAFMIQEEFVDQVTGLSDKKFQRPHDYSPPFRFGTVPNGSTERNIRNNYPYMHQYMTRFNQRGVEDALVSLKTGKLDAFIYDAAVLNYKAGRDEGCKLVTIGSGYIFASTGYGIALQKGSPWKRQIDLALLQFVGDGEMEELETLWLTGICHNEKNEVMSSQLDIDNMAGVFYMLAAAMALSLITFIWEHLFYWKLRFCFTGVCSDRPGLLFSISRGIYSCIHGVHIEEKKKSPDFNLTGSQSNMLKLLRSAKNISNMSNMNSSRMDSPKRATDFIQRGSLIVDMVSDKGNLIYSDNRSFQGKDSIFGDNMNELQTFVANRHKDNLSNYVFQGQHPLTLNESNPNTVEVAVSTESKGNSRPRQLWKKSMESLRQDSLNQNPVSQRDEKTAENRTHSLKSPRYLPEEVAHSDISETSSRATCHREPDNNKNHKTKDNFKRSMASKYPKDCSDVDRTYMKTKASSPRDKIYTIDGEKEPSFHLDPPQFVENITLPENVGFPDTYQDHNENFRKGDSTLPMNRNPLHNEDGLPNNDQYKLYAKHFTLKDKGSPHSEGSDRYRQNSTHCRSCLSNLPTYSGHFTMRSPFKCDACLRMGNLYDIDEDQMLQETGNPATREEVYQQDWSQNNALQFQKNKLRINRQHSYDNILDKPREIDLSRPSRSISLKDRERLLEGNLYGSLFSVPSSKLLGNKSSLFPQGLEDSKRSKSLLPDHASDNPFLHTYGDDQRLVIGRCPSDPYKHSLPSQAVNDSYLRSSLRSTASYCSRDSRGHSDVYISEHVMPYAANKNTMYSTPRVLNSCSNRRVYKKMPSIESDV
Source text: as §7, §8

[3] = test system: GluN2C/2D-containing NMDARs; details: cited from earlier work; for GluN2C/2D preference over GluN2A/2B: allosteric inhibitors
[4] = test system: tPA-promoted neurotoxicity; parameters: method as in Jullienne et al, 2011; details: given i.v.; only active where the blood brain barrier was compromised; ref Jullienne et al, 2011; cited from earlier work
[5] = test system: GluN1/GluN2B/GluN2D triheteromers; parameters: method as in Volianskis et al., 2013; details: hippocampus, at concentrations selective for GluN2D; ref Volianskis et al., 2013; cited from earlier work
[6] = test system: GluN1/GluN2B/GluN2D triheteromers; parameters: method as in Brothwell et al., 2008; Suárez et al., 2010; details: substantia nigra pars compacta; ref Brothwell et al., 2008; Suárez et al., 2010; cited from earlier work
[7] = biological target: GluN2D-containing receptors; details: cited from earlier work
[8] = biological target: GluN2B-containing receptors; parameters: method as in earlier work; details: TEVC; ref 1-3 (supplementary references); cited from earlier work
[9] = biological target: GluN2A-containing receptors; details: cited from earlier work
[10] = biological target: GluN2C-containing receptors; details: cited from earlier work
GluK1 = biological target: GluK1; parameters: method as in PMID 24462099; details: cited from earlier work
GluA2 = biological target: GluA2; parameters: method as in PMID 24462099; details: cited from earlier work
GluN2A-Lys738Met = test system: GluN2A-Lys738Met; parameters: method as in PMID 24462099; details: cited from earlier work
GluN2D = test system: GluN2D; parameters: method as in Swanger et al., 2017; details: GluN2D expressed in mammalian cells; ref Swanger et al., 2017; cited from earlier work
GluN2A/2C-triheteromers = test system: GluN2A/2C-triheteromers; parameters: method as in Swanger et al, 2017; details: oocyte-based system; ref Swanger et al, 2017; cited from earlier work
[11] = biological target: T4, GluN1-4a/GluN2D Met763Lys NMDARs (Rattus norvegicus, UniProt P35439+Q62645, M763K); experiment: TEVC electrophysiology on oocytes expressing GluN1-4a/GluN2D Met763Lys; type: cell-based
T4 construct: expressed in transfected cells; host or cells: Xenopus laevis oocytes injected with cRNA
T4 sequence (Q62645 28-1323 M763K, other chains not shown): as the sequence (Q62645 28-1323, other chains not shown) above, with M736K counted along it
Source text: (§9) To test the validity of the structural observation for the critical involvement of the methionine/lysine residue combination (GluN2D-Met763/Lys766, and GluN2A-4m-Met738/Lys741) in preferential binding of UBP791 to GluN2D over GluN2A, we conducted site-directed mutagenesis and assessed inhibition potencies of the mutant channels by TEVC. Specifically, we converted the GluN2D residues to the equivalent ones in the GluN2A subunit and measured macroscopic currents of the GluN1-4a/GluN2D mutant NMDARs.
as §8

[12] = biological target: T5, GluN1-4a/GluN2D Lys766Arg NMDARs (Rattus norvegicus, UniProt P35439+Q62645, K766R); experiment: TEVC electrophysiology on oocytes expressing GluN1-4a/GluN2D Lys766Arg; type: cell-based
T5 construct: expressed in transfected cells; host or cells: Xenopus laevis oocytes injected with cRNA
T5 sequence (Q62645 28-1323 K766R, other chains not shown): as the sequence (Q62645 28-1323, other chains not shown) above, with K739R counted along it
Source text: as §9, §8

[13] = biological target: T6, GluN1-4a/GluN2D Met763Lys/Lys766Arg NMDARs (Rattus norvegicus, UniProt P35439+Q62645, K766R/M763K); experiment: TEVC electrophysiology on oocytes expressing GluN1-4a/GluN2D Met763Lys/Lys766Arg; type: cell-based
T6 construct: expressed in transfected cells; host or cells: Xenopus laevis oocytes injected with cRNA
T6 sequence (Q62645 28-1323 M763K/K766R, other chains not shown): as the sequence (Q62645 28-1323, other chains not shown) above, with M736K, K739R counted along it
Source text: as §9, §8

[14] = normalized response at 30 µM compound
[15] = normalized response at 100 µM compound
[16] = TEVC, ref 1-3 (supplementary references)

SMILES: CC(Cc1ccc2c(ccc3cc(C(=O)N4CCN[C@H](C(=O)O)[C@@H]4C(=O)O)ccc32)c1)C(=O)O (some centres unmarked) [UBP1701]
- IC50 (GluA1): > 100 µM
- Mean Response (GluA1; [14]): 92.5%
- Mean Response (GluA1; [15]): 91.6%
- IC50 (GluK2): > 100 µM
- Mean Response (GluK2; [14]): 96.9%
- Mean Response (GluK2; [15]): 96.1%
- Ki (GluN1-4a/GluN2D NMDARs; Ki, Cheng–Prusoff from IC50 and L-glutamate EC50, 100 μM glycine, 1 or 3 μM L-glutamate): 0.1 ± 0.01 µM
- fold difference of Ki vs. 2D (GluN2A) (GluN1-4a/GluN2A NMDARs [1]): ~ 45 fold
- Ki (GluN1-4a/GluN2A NMDARs [2]): 4.49 ± 0.46 µM

SMILES: O=C(O)[C@H]1NCCN(C(=O)c2ccc3cc(Br)c4ccccc4c3c2)[C@H]1C(=O)O (relative stereo) [UBP145, (2R*,3S*)-1-(9-bromophenanthrene-3-carbonyl)piperazine-2,3-dicarboxylic acid]
- GluN2C/2D selectivity [3]: up to approximately tenfold
- effect on tPA neurotoxicity [4]: blocked neurotoxicity of co-applied tissue plasminogen activator (tPA)
- block of triheteromers [5]: blocks

SMILES: O=C(O)[C@H]1NCCN(C(=O)c2ccc3ccc4ccccc4c3c2)[C@H]1C(=O)O (relative stereo) [UBP141, (2R*,3S*)-1-(phenanthrene-3-carbonyl)piperazine-2,3-dicarboxylic acid]
- GluN2C/2D selectivity [3]: up to approximately tenfold
- inhibition of triheteromers [6]: inhibits

SMILES: O=C(O)Cc1cccnc1C(=O)O [HQA, homoquinolinic acid]
- EC50 [7, 16]: 30 to 90 µM
- EC50 [8]: 10 to 20 µM
- EC50 [9, 16]: 10 to 20 µM
- EC50 [10, 16]: 30 to 90 µM

SMILES: O=C(O)C1NCCN(C(=O)c2ccc3c(ccc4ccccc43)c2)C1C(=O)O [(2S,3R)-PPDA]
- fold higher potency compared to the (+)-isomer ([7]; GluN2D-containing NMDARs, ref Jespersen et al, 2014): 7 fold
- fold higher potency compared to the (+)-isomer ([3]; GluN2C and GluN2D-containing NMDARs, ref Irvine et al, 2012): ~ 50 fold
- potency of (2S,3R)-PPDA compared with (2R,3S)-PPDA [3]: approximately tenfold higher potency
- fold higher potency than the racemate ([3]; on GluN2C and GluN2D, ref 29 (Irvine et al., 2012)): about 1.4 fold
- Ki (GluK1): 1.17 µM
- Ki (GluA2): 7.85 µM

SMILES: Cc1ccc2[nH]c(=O)c(C3=NN(C(=O)CCC(=O)O)C(c4ccc(Br)cc4)C3)c(-c3ccccc3)c2c1 (centres unmarked) [DQP-1105]
- GluN2C/2D preference over GluN2A/2B [3]: ~ 50 fold

SMILES: O=C(O)[C@@H]1[C@H](C(=O)O)NCCN1C(=O)c1ccc2c(ccc3ccccc32)c1 (relative stereo) [PPDA, (2S*,3R*)-1-(phenanthrene-2-carbonyl)piperazine-2,3-dicarboxylic acid]
- Ki ([9]; GluN2A, PPDA values ref 27): ~0.5 µM
- increase of potency compared with the WT GluN2A (GluN2A-Lys738Met): fivefold

SMILES: CCN(CC)C(=O)Oc1ccc(C(=O)Nc2cccc3cc[nH]c23)cc1 [NAB-14]
- IC50 ([7]; GluN2D expressed in Xenopus oocytes, ref Swanger et al., 2017): 2.2 µM
- GluN2C/2D preference over GluN2A/2B [3]: about 800 fold
- selectivity for recombinant GluN2C/GluN2D over GluN2A/GluN2B ([3]; reviewer's statement in peer review file, ref Swanger A. et al (2007)): > 800 fold
- IC50 (GluN2D): 0.58 µM and 0.584 µM
- IC50 (GluN2A/2C-triheteromers): ~15 µM
- IC50 ([10]; GluN2C-diheteromers, oocyte-based system, ref Swanger et al, 2017): 5 µM

SMILES: COc1ccc2nc(/C=C/c3cccc([N+](=O)[O-])c3)n(-c3ccc(C(=O)O)cc3)c(=O)c2c1 [QNZ46]
- GluN2C/2D preference over GluN2A/2B [3]: ~ 50 fold

SMILES: N[C@@H](CCC(=O)O)C(=O)O [L-glutamate, reference compound]
- EC50 [11]: 0.27 ± 0.02 µM
- EC50 [12]: 0.13 ± 0.02 µM
- EC50 (GluN1-4a/GluN2D NMDARs): 0.17 ± 0.01 µM
- EC50 [13]: 0.17 ± 0.02 µM

SMILES: O=C(O)CCCCc1ccc2c(ccc3cc(C(=O)N4CCNC(C(=O)O)C4C(=O)O)ccc32)c1 (centres unmarked) [UBP1702]
- IC50 (GluA1): > 100 µM
- Mean Response (GluA1; [14]): 86.5%
- Mean Response (GluA1; [15]): 97.4%
- IC50 (GluK2): > 100 µM
- Mean Response (GluK2; [14]): 94.5%
- Mean Response (GluK2; [15]): 96.0%
- Ki (GluN1-4a/GluN2D NMDARs; read-out: Ki): 0.13 ± 0.01 µM
- fold difference of Ki vs. 2D (GluN2A) (GluN1-4a/GluN2A NMDARs [1]): ~ 52 fold
- Ki (GluN1-4a/GluN2A NMDARs [2]): 6.75 ± 0.75 µM
